We go through two molecules from publication PMC10233829 (ACS Omega, 2023).

In brackets after ≈: the same amount, converted by molar mass. Where two headings read alike, the source gives them in different places.

In one series the test system is P. aeruginosa 659. In words: MIC, twofold microdilution, clinical strain. In kind it is cell-based. The note with it: Pseudomonas aeruginosa, 18 h. On the technique in general: In broth dilution the organism is exposed to a series of concentrations in liquid medium.
The target in series [1] is T1, S. aureus topoisomerase IV (Staphylococcus aureus, UniProt P0C1S7+P0C1U9).
T1 construct: purchased Inspiralis, Norwich, UK
Description: Topoisomerase IV decatenation assay. It is filed as biochemical. The note with it: decatenation of kinetoplast DNA.

In series [2] the test system is clinical bacterial strains. In words: MIC, clinical isolates as groups of strains. It is filed as cell-based.
The test system of the next series is E. coli 520. Description: MIC, twofold microdilution, clinical strain. It is filed as cell-based. As to conditions: Escherichia coli, 18 h.
A further series has as its system S. epidermidis KR4243/1. In words: MIC, twofold microdilution, clinical strain. It is filed as cell-based. The note with it: Staphylococcus epidermidis, 18 h.
The nature of series [3]: MTT assay, cytotoxic activity. It is filed as cell-based. The note with it: human, HaCaT cells (immortal keratinocytes); MTT, 72 h, normal cell line; read-out: IC50 HaCaT. The essentials:
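MTT assay on cells grown at 37 °C/5% CO2. Viability is expressed as relative MTT reduction: test absorbance divided by untreated-control absorbance, ×100%.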
For orientation: Tetrazolium assays rely on reduction of a dye to a coloured formazan, in cell work by metabolically active cells.

Another series relates to E. coli 600. Description: MIC, twofold microdilution, clinical strain. In kind it is cell-based, Escherichia coli. The note with it: Escherichia coli, 600, 18 h.
Series [4] relates to S. epidermidis ATCC 35984. In words: MIC, twofold microdilution, standard strain. As to conditions: Staphylococcus epidermidis, ATCC35984, 18 h. It is filed as cell-based.
In the next series the test system is S. aureus T5595. Description: MIC, twofold microdilution, clinical strain. In kind it is cell-based, Staphylococcus aureus.
The next series relates to E. coli ATCC 25922. Description: MIC, twofold microdilution, standard strain. It is filed as cell-based, Escherichia coli. The note with it: Escherichia coli, ATCC25922; standard strain, 18 h.
A further series concerns S. epidermidis 4341. In words: MIC, twofold microdilution, clinical strain. In kind it is cell-based. The note with it: Staphylococcus epidermidis, 18 h.
In a further series the test system is P. aeruginosa 37. In words: MIC, twofold microdilution, clinical strain. In kind it is cell-based. The note with it: Pseudomonas aeruginosa, 18 h.
The test system of series [5] is Staphylococci (standard strains). In words: MIC, standard Gram-positive strains as a panel. In kind it is cell-based, S. aureus, S. epidermidis. As to conditions: read-out: MIC toward standard Staphylococci (range over strains).
Series [6] concerns P. aeruginosa ATCC 15442 and E. coli ATCC 25922. Description: MIC, standard Gram-negative rods as a panel. It is filed as cell-based. As to conditions: P. aeruginosa ATCC 15442, E. coli ATCC 25922; read-out: MIC against standard Gram-negative rods (range over strains).
Another series concerns M. tuberculosis H37Rv. In words: Tuberculostatic activity, Microplate Alamar Blue Assay (MIC). It is filed as cell-based, Mycobacterium tuberculosis. The note with it: Mycobacterium tuberculosis, H37RV; MABA; read-out: MIC M. tuberculosis H37Rv. A general note: Alamar Blue is a resazurin reagent that responds to reducing activity.
In a further series the test system is K. pneumoniae 28. In words: MIC, twofold microdilution, clinical strain. In kind it is cell-based. The note with it: Klebsiella pneumoniae, 18 h.
The next series relates to S. aureus ATCC 29213. Description: MIC, twofold microdilution, standard strain. It is filed as cell-based. As to conditions: Staphylococcus aureus, ATCC29213, 18 h.
The next series deals with S. aureus DNA gyrase (Staphylococcus aureus, UniProt P0A0K8+P20831). Description: biochemical. As to conditions: supercoiling of relaxed pBR322. As to the method: The enzymatic assay was carried using commercial topoisomerases type II as previously described by Alt et al.[55] with some modifications.
Briefly, 1 U of the enzyme (gyrase or topo IV, Inspiralis. Norwich, UK) isolated from S. aureus converts […] of relaxed pBR322 DNA to the supercoiled form (gyrase) or decatenates 200 ng of kinetoplast DNA (topo IV). […] The reactions were terminated by adding an equal volume of STEB buffer (40% sucrose, 100 mM Tris–HCl pH 8, 10 mM EDTA, and 0.5 mg/mL bromophenol blue), followed by extraction with 1 volume of chloroform/isoamyl alcohol (24:1). The samples were vortexed and centrifuged, and 20 μL of the aqueous phase of each sample was loaded onto a 1% agarose gel and left for 30 min prior to electrophoresis to allow diffusion of salt. […] Gels were stained with ethidium bromide and visualized under UV light in a transilluminator (ChemiDoc MP, Bio Rad).

A further series relates to S. pasteuri KR 4358. In words: MIC, twofold microdilution, clinical strain. In kind it is cell-based. As to conditions: Staphylococcus pasteuri, KR4358, 18 h.
In a further series the test system is K. pneumoniae 510. In words: MIC, twofold microdilution, clinical strain. In kind it is cell-based, Klebsiella pneumoniae. As to conditions: Klebsiella pneumoniae, 510; clinical strain, 18 h.
In a further series the test system is S. aureus ATCC 6538. Description: MIC, twofold microdilution, standard strain. As to conditions: Staphylococcus aureus, ATCC6538; standard strain, 18 h. It is filed as cell-based, Staphylococcus aureus.
In the next series the test system is E. cloacae 8. In words: MIC, twofold microdilution, clinical strain. It is filed as cell-based, Escherichia cloacae. As to conditions: Enterobacter cloacae, 8; clinical strain, 18 h.
A further series relates to PC3 cells. In words: MTT assay, cytotoxic activity. It is filed as cell-based, human. As to conditions: Homo sapiens, PC-3, 72 h, MTT, 72 h. The essentials: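 PC3 cells were grown at 37 °C/5% CO2 and exposed to test compounds. Viability came from MTT reduction, as test absorbance over untreated-control absorbance × 100%.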
In a further series the test system is S. aureus 5595. Description: MIC, twofold microdilution, clinical strain. It is filed as cell-based. The note with it: Staphylococcus aureus, 18 h.
The test system of a further series is S. aureus ATCC 25923. Description: MIC, twofold microdilution, standard strain. It is filed as cell-based. The note with it: Staphylococcus aureus, ATCC25923, 18 h.
The next series concerns S. aureus NCTC 4163. Description: MIC, twofold microdilution, standard strain. It is filed as cell-based. The note with it: Staphylococcus aureus, NCTC4163, 18 h.
A further series deals with S. aureus T5591. Description: MIC, twofold microdilution, clinical strain. It is filed as cell-based, Staphylococcus aureus.
Another series has as its system E. coli 951. Description: MIC, twofold microdilution, clinical strain. The note with it: Escherichia coli, 18 h. In kind it is cell-based.
A further series has as its system S. epidermidis 5253. In words: MIC, twofold microdilution, clinical strain. In kind it is cell-based, Staphylococcus epidermidis.
The test system of series [7] is M. tuberculosis Spec. 192. In words: Tuberculostatic activity, Microplate Alamar Blue Assay (MIC). It is filed as cell-based. The note with it: Mycobacterium tuberculosis, MABA, read-out: MIC M. tuberculosis Spec. 192 (sensitive to tuberculostatics).
The next series relates to S. aureus 180. In words: MIC, twofold microdilution, clinical strain. In kind it is cell-based. The note with it: Staphylococcus aureus, 18 h.
The next series deals with P. aeruginosa ATCC 15442. Description: MIC, twofold microdilution, standard strain. In kind it is cell-based, Pseudomonas aeruginosa. As to conditions: Pseudomonas aeruginosa, ATCC15442; standard strain, 18 h.
For series [8], the system named is S. epidermidis ATCC 12228. In words: MIC, twofold microdilution, standard strain. The note with it: Staphylococcus epidermidis, ATCC12228, 18 h. It is filed as cell-based.

Regarding `O=C(O)c1cn(C2CC2)c2cc(N3CCN(C(=O)CCCCCl)CC3)c(F)cc2c1=O` [Compound 6, 7-[4-(5-Chloropentanoyl)-piperazin-1-yl]-1-cyclopropyl-6-fluoro-4-oxo-1,4-dihydro-quinoline-3-carboxylic Acid], the MIC against P. aeruginosa 659 is 12.8 µg/mL (≈ 28.5 µM); in series [2] (clinical strains, read-out: MIC against selected E. coli and E. cloacae strains), 0.1 to 0.8 µg/mL (≈ 0.222 to 1.78 µM); with E. coli 520, 0.4 µg/mL (≈ 0.889 µM); with S. epidermidis KR4243/1 it was 0.2 µg/mL (≈ 0.445 µM); in the series with E. coli 600 it was 0.4 µg/mL (≈ 0.889 µM); in [4] it was 0.2 µg/mL (≈ 0.445 µM). The MIC in the series on S. aureus T5595 (Staphylococcus aureus, T5595, 18 h) is 0.1 to 0.2 µg/mL (≈ 0.222 to 0.445 µM); in the series on E. coli ATCC 25922, 0.2 µg/mL (≈ 0.445 µM); in the series on S. epidermidis 4341 it was 6.4 µg/mL (≈ 14.2 µM); against P. aeruginosa 37 it was 6.4 µg/mL (≈ 14.2 µM); in [5], 0.1 to 0.8 µg/mL (≈ 0.222 to 1.78 µM); in series [6] it was at most 1 µg/mL. Also, the MIC in the series with M. tuberculosis H37Rv is 0.5 µg/mL (≈ 1.11 µM); with K. pneumoniae 28 it was over 25.6 µg/mL; against S. aureus ATCC 29213 it was 0.2 µg/mL (≈ 0.445 µM); against S. pasteuri KR 4358, 0.2 µg/mL (≈ 0.445 µM); against K. pneumoniae 510, over 25.6 µg/mL; against S. aureus ATCC 6538 it was 0.2 µg/mL (≈ 0.445 µM). In addition, the MIC is 0.8 µg/mL (≈ 1.78 µM) against E. cloacae 8; 0.1 µg/mL (≈ 0.222 µM) with S. aureus 5595; 0.2 µg/mL (≈ 0.445 µM) with S. aureus ATCC 25923; 0.2 µg/mL (≈ 0.445 µM) in the series on S. aureus NCTC 4163; 0.1 to 0.2 µg/mL (≈ 0.222 to 0.445 µM) in the series on S. aureus T5591 (Staphylococcus aureus, T5591, 18 h); 12.8 µg/mL (≈ 28.5 µM) in the series on E. coli 951. In addition, the MIC in the series with S. epidermidis 5253 (Staphylococcus epidermidis, 5253, 18 h) is 12.8 to 25.6 µg/mL (≈ 28.5 to 56.9 µM); in [7], 0.5 µg/mL (≈ 1.11 µM); in the series with S. aureus 180 it was 0.1 µg/mL (≈ 0.222 µM); against P. aeruginosa ATCC 15442, 1.6 µg/mL (≈ 3.56 µM); in series [8], 0.2 µg/mL (≈ 0.445 µM). Further, the IC50 was 17.8 µM in series [1] (read-out: IC50 S. aureus topoisomerase IV (converted)), 12 µM against S. aureus DNA gyrase and 108 ± 11 µM with PC3 cells. In series [2] (S. aureus 180 and 5595), the “fold more effective than CP” value stood at 5 fold. Further, the “times more powerful than CP” value in [2] (S. aureus T5595 and T5591) is recorded as 1.25–2.5 times. In addition, the IC50 at 72 h in series [3] amounted to 19.7 ± 2.8 µM. The “MIC S. aureus T5595” value in the series with S. aureus T5595 (18 h) was 0.2 µg/mL (≈ 0.445 µM). In addition, the “MIC S. aureus T5591” value in the series on S. aureus T5591 (18 h) is 0.2 µg/mL (≈ 0.445 µM). For the same molecule, the “MIC S. epidermidis 5253” value against S. epidermidis 5253 (18 h) stood at 12.8 µg/mL (≈ 28.5 µM).
In series [1] (IC50 S. aureus topoisomerase IV), `COc1c(N2C[C@@H]3CCCN[C@@H]3C2)c(F)cc2c(=O)c(C(=O)O)cn(C3CC3)c12` [MXF, moxifloxacin, reference compound] showed an IC50 of 3.74 µM.

In general, MIC refers to the lowest concentration found to suppress growth. The term IC50 denotes the concentration that gives 50% inhibition.
